The compounds below were run against Glycogen synthase kinase-3 beta (Homo sapiens, UniProt P49841) (assay: Kinase-Glo Assay). Settings: 30 °C.
Description: The final DMSO concentration in the reaction mixture was <1%. After incubation at 30 °C for 30 min, the enzymatic reaction was quenched with 40 μL of Kinase-Glo reagent. Luminescence was recorded after 10 min using Infinite F200® PRO multimode reader (Tecan Group Ltd., Männedorf, Switzerland). The activity is proportional to the difference of the total and consumed ATP.

Chain of Glycogen synthase kinase-3 beta (P49841 whole entry): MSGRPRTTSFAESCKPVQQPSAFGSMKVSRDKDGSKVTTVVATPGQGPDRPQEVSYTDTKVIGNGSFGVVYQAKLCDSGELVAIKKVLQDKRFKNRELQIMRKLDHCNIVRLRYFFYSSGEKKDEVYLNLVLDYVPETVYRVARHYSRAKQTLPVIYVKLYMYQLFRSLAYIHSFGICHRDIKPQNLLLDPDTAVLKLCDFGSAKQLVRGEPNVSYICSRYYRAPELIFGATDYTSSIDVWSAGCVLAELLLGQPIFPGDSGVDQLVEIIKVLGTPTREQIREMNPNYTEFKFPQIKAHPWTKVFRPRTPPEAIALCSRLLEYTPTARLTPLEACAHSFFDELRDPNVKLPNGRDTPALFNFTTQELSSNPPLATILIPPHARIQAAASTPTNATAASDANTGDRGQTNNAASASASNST

Compound | IC50 [µM]
O=c1oc2cccnc2n1Cc1cn(-c2ccc(Cl)cc2Cl)nn1 [3-((1-(2,4-dichlorophenyl)-1H-1,2,3-triazol-4-yl)methyl)oxazolo[4,5-b]pyridin-2(3H)-one (4r)] | 10.8
O=c1oc2cccnc2n1Cc1cn(-c2cccnc2Cl)nn1 [3-((1-(2-chloropyridin-3-yl)-1H-1,2,3-triazol-4-yl)methyl)oxazolo[4,5-b]pyridin-2(3H)-one (4t)] | 11
O=c1oc2cccnc2n1Cc1cn(-c2ccc(Cl)c(Cl)c2)nn1 [3-((1-(3,4-dichlorophenyl)-1H-1,2,3-triazol-4-yl)methyl)oxazolo[4,5-b]pyridin-2(3H)-one (4s)] | 12.6
Cc1ccc(-n2cc(Cn3c(=O)oc4cccnc43)nn2)cc1C [3-((1-(3,4-dimethylphenyl)-1H-1,2,3-triazol-4-yl)methyl)oxazolo[4,5-b]pyridin-3H)one (4j)] | 40.1
O=c1oc2cccnc2n1Cc1cn(-c2cccc(Cl)c2)nn1 [3-((1-(3-chlorophenyl)-1H-1,2,3-triazol-4-yl)methyl)oxazolo[4,5-b]pyridin-2(3H)-one (4k)] | 28.4
O=c1oc2cccnc2n1Cc1cn(-c2cccc([N+](=O)[O-])c2)nn1 [3-((1-(3-nitrophenyl)-1H-1,2,3-triazol-4-yl)methyl)oxazolo[4,5-b]pyridin-2(3H)-one (4o)] | 15.6
O=c1oc2cccnc2n1Cc1cn(-c2ccc(Br)cc2)nn1 [3-((1-(4-bromophenyl)-1H-1,2,3-triazol-4-yl)methyl)oxazolo[4,5-b]pyridin-2(3H)-one (4b)] | 8.64
CCOc1ccc(-n2cc(Cn3c(=O)oc4cccnc43)nn2)cc1 [3-((1-(4-ethoxyphenyl)-1H-1,2,3-triazol-4-yl)methyl)oxazolo[4,5-b]pyridin-2(3H)-one (4u)] | 37.3
CCc1ccc(-n2cc(Cn3c(=O)oc4cccnc43)nn2)cc1 [3-((1-(4-ethylphenyl)-1H-1,2,3-triazol-4-yl)methyl)oxazolo[4,5-b]pyridin-2(3H)-one (4h)] | 12.7
COc1ccc(-n2cc(Cn3c(=O)oc4cccnc43)nn2)cc1 [3-((1-(4-methoxyphenyl)-1H-1,2,3-triazol-4-yl)methyl)oxazolo[4,5-b]pyridin-2(3H)-one (4l)] | 8.45
O=c1oc2cccnc2n1Cc1cn(-c2ccc([N+](=O)[O-])cc2)nn1 [3-((1-(4-nitrophenyl)-1H-1,2,3-triazol-4-yl)methyl)oxazolo[4,5-b]pyridin-2(3H)-one (4p)] | 17.1
CC(C)(C)c1ccc(-n2cc(Cn3c(=O)oc4cccnc43)nn2)cc1 [3-((1-(4-tert-butylphenyl)-1H-1,2,3-triazol-4-yl)methyl)oxazolo[4,5-b]pyridin-2(3H)-one (4m)] | 23.5
O=c1oc2cccnc2n1Cc1cn(-c2ccccc2)nn1 [3-((1-phenyl-1H-1,2,3-triazol-4-yl)methyl)oxazolo[4,5-b]pyridin-2(3H)-one (4a)] | 10.1

These reach a lower IC50. Values come first.

IC50 [µM] | Compound
0.31 | O=c1oc2cccnc2n1Cc1cn(-c2ccccc2Br)nn1 [3-((1-(2-bromophenyl)-1H-1,2,3-triazol-4-yl)methyl)oxazolo[4,5-b]pyridin-2(3H)-one (4f)]
0.19 | O=c1oc2cccnc2n1Cc1cn(-c2ccccc2Cl)nn1 [3-((1-(2-chlorophenyl)-1H-1,2,3-triazol-4-yl)methyl)oxazolo[4,5-b]pyridin-2(3H)-one (4g)]
0.37 | O=c1oc2cccnc2n1Cc1cn(-c2ccccc2F)nn1 [3-((1-(2-fluorophenyl)-1H-1,2,3-triazol-4-yl)methyl)oxazolo[4,5-b]pyridin-2(3H)-one (4i)]
0.74 | COc1ccccc1-n1cc(Cn2c(=O)oc3cccnc32)nn1 [3-((1-(2-methoxyphenyl)-1H-1,2,3-triazol-4-yl)methyl)oxazolo[4,5-b]pyridin-2(3H)-one  (4q)]
5.73 | O=c1oc2cccnc2n1Cc1cn(-c2ccc(Cl)cc2)nn1 [3-((1-(4-chlorophenyl)-1H-1,2,3-triazol-4-yl)methyl)oxazolo[4,5-b]pyridin-2(3H)-one (4c)]
2.49 | O=c1oc2cccnc2n1Cc1cn(-c2ccc(F)cc2)nn1 [3-((1-(4-fluorophenyl)-1H-1,2,3-triazol-4-yl)methyl)oxazolo[4,5-b]pyridin-2(3H)-one (4e)]
0.23 | O=c1oc2cccnc2n1Cc1cn(-c2cccnc2)nn1 [3-((1-(pyridin-3-yl)-1H-1,2,3-triazol-4-yl)methyl)oxazolo[4,5-b]pyridin-2(3H)-one (4d)]
0.65 | Cc1ccccc1-n1cc(Cn2c(=O)oc3cccnc32)nn1 [3-((1-o-tolyl-1H-1,2,3-triazol-4-yl)methyl)oxazolo[4,5-b]pyridin-2(3H)-one (4n)]

From BindingDB's records for doi:10.1111/cbdd.12724 (Hamdard University (Jamia Hamdard), 2016)
